Measured values from patent publication US8421457B2, “Methods and systems for magnetically resonating both a subject and a substance administered to the subject” (Applied Magnetics, LLC, priority 2008, dated 2013).

Legend:
[1] = tested on: patients with prostate problems, such as an enlarged prostate; assay: Case report: enlarged prostate drugs combined with MR treatment; format: in vivo, human; conditions: for PSA count, last measurement before MR treatment: person, enlarged prostate for fifteen years, taking the drugs; for PSA count after eighteen months of treatment / prostate size after eighteen months of treatment: same subject, three MR treatments per week
Method: In one example, a person had been diagnosed with an enlarged prostate for fifteen years and their PSA count was rising (the last measurement was 2.35). The subject was taking the drugs Avodart and Flomax. The subject began a series of three treatments per week for […], and continuing on an ongoing basis.
In providing MR treatment to a subject with prostate problems, an amplitude of about 0.01 μG to about 0.4 μG, with a frequency of about 0.2799 Hz to about 11.197 Hz may be used.

osteoarthritis patients = conditions: person
From the text: In one example, a person suffered from back pain due to degenerative disk disease in their low back and sciatica. […] The subject was resonated approximately three times per week for more than one year.
In another example, a person experienced arthritis pain in a number of joints, including their hips, hands, and shoulders. The subject also suffered from sciatica in their hips and legs. The subject was taking Celebrex. The subject was resonated at least three times per week for one to two hours per session.
In a further example, a person experienced osteoarthritis pain and stiffness in their hands and finger joints. […] The subject was resonated twice for one-half hour per treatment. The subject was asked to rate their pain on a scale of zero (feels great) to ten (feels terrible) before and after treatment.
Alternatively, an amplitude of about 0.01 μG to about 0.46 μG, with a frequency of about 0.2799 Hz to about 12.8765 Hz may be used.

fibromyalgia patients = assay: Case reports: fibromyalgia, drugs combined with MR treatment; format: in vivo, human
Method: In one example, a person experienced fibromyalgia for a number of years. The subject also experienced insomnia, restless legs, and chronic fatigue. The subject took the drug Naproxen (Aleve). The subject received seven consecutive days of 1 to 1.5 hour treatments.
Their primary complaint was back pain. […] The subject received thirteen treatments within a two-month period. […] Approximately two months after completing their first series of treatment, they began a second regimen of ten treatments within a two-month period.
In a further example, a person at least fifty years old suffered from fibromyalgia for a number of years. […] The subject received daily (when possible) treatments for approximately one year.

[2] = tested on: migraine and headache patients; assay: Case reports: migraine and headache drugs combined with MR treatment; format: in vivo, human; conditions: for results on migraines / pain level before being resonated / reduction in pain level: person with migraines taking the drugs; for results on migraines: resonated ten times, 1 to 1.5 hours, over one month; for pain level before being resonated / pain level after treatment: scale of zero to ten; for reduction in pain level: two one-hour MR treatments three months apart; for pain level after treatment: same subject, after ten MR treatments over one month
Method: The subject was resonated ten times for 1 to 1.5 hours per treatment over a one-month period.
In another example, a person experienced pain associated with migraines. […] The subject received two one-hour treatments three months apart.
In a further example, a person experienced pain associated with severe headaches. The subject took Aspirin to treat the pain. The subject received one treatment for one hour.

Parkinson's patient [3] = assay: Average off time of Levodopa, baseline versus MR treatment; format: in vivo, human; conditions: for % Improved: MR result vs baseline
From the text: In the example of Table 1, the MR analysis algorithm 166 has performed a query, for example, on the terms “Indication=Parkinson's” in combination with “Substance=Levodopa,” in order to produce one or more records of one or more subjects of one or more treatment events. Subsequently, the selected magnetic resonance treatment regimen may be transmitted from the MR system server 160 to the client computer 120. The operator 138 then may carry out the treatment regimen upon the subject 150 according to the recommended treatment regimen. For example, the recommended magnetic resonance treatment regimen may specify a certain number and frequency of treatment events, wherein for each treatment an amount of a certain substance is administered to the body of the subject, and the subject is then resonated with electromagnetic energy of a certain flux density and certain frequency for a certain amount of time. Subsequent to each magnetic resonance treatment, all related data is updated locally at the client computer 120 and/or remotely at the MR system server 160. Using the example of a subject 150 that has Parkinson's disease, a side effect of certain Parkinson's drugs may be involuntary movements called dyskinesias. Therefore, an example of results that may be logged in treatment data 137 may be observations as to the amount of time from beginning of treatment to the onset of dyskinesias, which is an indication as to the amount of time that it has taken for the substance 152 to enter the subject's body systems. Other observable effects of the MR treatment after the substance 152 that has been administered to the subject's body systems may be a reduction in off time of the drug, a reduction in tremors, and a reduction in joint stiffness.

Parkinson's patient [4] = assay: Onset of dyskinesias after Levodopa, with and without magnetic resonance (MR) treatment; format: in vivo, human; conditions: for % Improved: MR result vs baseline; for MR Result Onset of Dyskinesias: MR whole body immersion (7′)
Method: Subsequently, the selected magnetic resonance treatment regimen may be transmitted from the MR system server 160 to the client computer 120. The operator 138 then may carry out the treatment regimen upon the subject 150 according to the recommended treatment regimen. For example, the recommended magnetic resonance treatment regimen may specify a certain number and frequency of treatment events, wherein for each treatment an amount of a certain substance is administered to the body of the subject, and the subject is then resonated with electromagnetic energy of a certain flux density and certain frequency for a certain amount of time. Subsequent to each magnetic resonance treatment, all related data is updated locally at the client computer 120 and/or remotely at the MR system server 160.

[5] = same subject, thirteen MR treatments within a two-month period

C[C@]12C=CC(=O)N[C@@H]1CC[C@@H]1[C@@H]2CC[C@]2(C)[C@@H](C(=O)Nc3cc(C(F)(F)F)ccc3C(F)(F)F)CC[C@@H]12 [Avodart]
PSA count, last measurement before MR treatment [1]: 2.35
PSA count after eighteen months of treatment [1]: 0.95
prostate size after eighteen months of treatment [1]: no longer enlarged

Cc1ccc(-c2cc(C(F)(F)F)nn2-c2ccc(S(N)(=O)=O)cc2)cc1 [Celebrex]
results of treatment (osteoarthritis patients; arthritis pain and sciatica, taking Celebrex, resonated at least three times per week, one to two hours per session): a reduction in dosage and frequency of taking Celebrex, decreased pain, improved mobility, and improved sleep

CCOC(=O)N1CCC(=C2c3ccc(Cl)cc3CCc3cccnc32)CC1 [Claritin]
pain level after treatment, first series (fibromyalgia patients; [5]): 0.5

O=C1CN=C(c2ccccc2Cl)c2cc([N+](=O)[O-])ccc2N1 [Clonazepam]
pain level after treatment, first series (fibromyalgia patients; [5]): 0.5

CCOc1ccccc1OCCN[C@H](C)Cc1ccc(OC)c(S(N)(=O)=O)c1 [Flomax]
PSA count, last measurement before MR treatment [1]: 2.35
PSA count after eighteen months of treatment [1]: 0.95
prostate size after eighteen months of treatment [1]: no longer enlarged

CCC(=O)O[C@]1(C(=O)SCF)[C@H](C)C[C@H]2[C@@H]3C[C@H](F)C4=CC(=O)C=C[C@]4(C)[C@@]3(F)[C@@H](O)C[C@@]21C [Flonase]
pain level after treatment, first series (fibromyalgia patients; [5]): 0.5

NS(=O)(=O)c1cc2c(cc1Cl)NCNS2(=O)=O [HCTZ]
pre-treatment pain level, first series (fibromyalgia patients; person, fibromyalgia, back pain, on the listed drugs, before MR): 4
initial pain level, second series (fibromyalgia patients; same subject, approx. two months after first series, before second regimen): 4
pain level after treatment, first series (fibromyalgia patients; [5]): 0.5

CNS(=O)(=O)Cc1ccc2[nH]cc(CCN(C)C)c2c1 [Immitrex]
results on migraines [2]: decreased frequency and duration of migraines
pain level before being resonated [2]: nine
reduction in pain level [2]: 50%
pain level after treatment [2]: two

N[C@@H](Cc1ccc(O)c(O)c1)C(=O)O [Levodopa]
% Improved (Parkinson's patient [3]; Record # 4752: average off time, Levodopa 50 mg): 17%
Baseline Average off time (Parkinson's patient [3]; Record # 4752: subject W-65, Parkinson's, Levodopa 50 mg ingested): Average off time 6 hours
MR Result Average off time (Parkinson's patient [3]; Record # 4752: subject W-65, Levodopa 50 mg ingested, MR partial immersion (4′), 0.0697 microgauss, 1.9 Hz, sinusoidal, 90 mins): Average off time 5 hours
% Improved (Parkinson's patient [3]; Record # 5942: average off time, Levodopa 25 mg): 33%
Baseline Average off time (Parkinson's patient [3]; Record # 5942: subject AA-35, Parkinson's, Levodopa 25 mg ingested): Average off time 6 hours
MR Result Average off time (Parkinson's patient [3]; Record # 5942: subject AA-35, Levodopa 25 mg ingested, MR partial immersion (22″), 0.0717 microgauss, 1.8 Hz, triangle, 70 mins): Average off time 4 hours
time from consuming Levodopa to dyskinesias (Parkinson's patient [4]; Example 1, Parkinson's patient, no magnetic resonance): about 38 minutes
time from consuming Levodopa to dyskinesias (Parkinson's patient [4]; Example 1, same Parkinson's patient, substantially the same dosage, then receives magnetic resonance): about 22 minutes
absorption rate and efficacy of Levodopa on resonating the patient (Parkinson's patient [4]; Parkinson's patient resonated after consuming Levodopa): improved the absorption rate of Levodopa
% Improved (Parkinson's patient [4]; Record # 1265: onset of dyskinesias, Levodopa 25 mg): 42%
Baseline Onset of Dyskinesias (Parkinson's patient [4]; Record # 1265: subject A-84, Parkinson's, Levodopa 25 mg ingested): Onset of Dyskinesias 38 mins
MR Result Onset of Dyskinesias (Parkinson's patient [4]; Record # 1265: subject A-84, Levodopa 25 mg ingested, 0.0667 microgauss, 2.0 Hz, square, 60 mins): Onset of Dyskinesias 22 mins
% Improved (Parkinson's patient [4]; Record # 7508: onset of dyskinesias, Levodopa 50 mg): 37%
Baseline Onset of Dyskinesias (Parkinson's patient [4]; Record # 7508: subject W-65, Parkinson's, Levodopa 50 mg ingested): Onset of Dyskinesias 43 mins
MR Result Onset of Dyskinesias (Parkinson's patient [4]; Record # 7508: subject W-65, Levodopa 50 mg ingested, 0.0697 microgauss, 1.9 Hz, sinusoidal, 80 mins): Onset of Dyskinesias 27 mins

CC(C)C[C@H](CN)CC(=O)O [Lyrica]
pain level after treatment, first series (fibromyalgia patients; in vivo): 0.5

CN1CC[C@]23c4c5ccc(O)c4O[C@H]2[C@@H](O)C=C[C@H]3[C@H]1C5 [Morphine]
pain level after treatment, first series (fibromyalgia patients; in vivo): 0.5

COc1ccc2cc([C@H](C)C(=O)O)ccc2c1 [Naproxen]
pain level before treatment (fibromyalgia patients; Person, fibromyalgia, took Naproxen (Aleve)): six
initial pain levels before treatments (fibromyalgia patients; person, fibromyalgia, taking Naproxen (Aleve), depending on the area of the body): three to seven
pain after treatment (fibromyalgia patients; same subject, daily (when possible) MR treatments for approximately one year): total elimination of pain
pain level after completing treatment (fibromyalgia patients; same subject, seven consecutive days of 1 to 1.5 hour MR treatments): zero to one
results of continuing treatment (osteoarthritis patients; back pain (degenerative disk disease, sciatica), taking the drugs, resonated approx. three times per week for more than one year): significantly less pain, an improved range of motion, and improved sleep

COc1ccccc1OCC(O)COC(N)=O (stereo not drawn) [Robaxin]
pain level after treatment, first series (fibromyalgia patients; [5]): 0.5

CC1(C)O[C@@H]2[C@@H](CO[C@@]3(COS(N)(=O)=O)OC(C)(C)O[C@@H]23)O1 [Topomax]
results on migraines [2]: decreased frequency and duration of migraines
pain level before being resonated [2]: nine
reduction in pain level [2]: 50%
pain level after treatment [2]: two

CCN(CC)CC(=O)Nc1c(C)cccc1C [lidoderm]
pain level after treatment, first series (fibromyalgia patients; [5]): 0.5
